Measured values from US20150224164A1, “TREATMENT OF AUTISM SPECTRUM DISORDERS USING GLYCYL-L-2-METHYLPROLYL-L-GLUMATIC ACID” (Neuren Pharmaceuticals Limited, priority 2013, published 2015).
Where a SMILES comes first, the peptide text is derived from it.

Legend:
17 month old rats = test: 8-arm radial maze, spatial working memory; type: in vivo, rat; settings: for WCC8-12 score, improvement across days: 9-day washout
Source text: The apparatus consists of a central platform communicating with 8 identical arms, each with a food cup at the end of the arm Rats were partially food-deprived for at least 10 days prior to, and throughout the radial maze procedure. The maze was assembled and positioned so that the experimenter could clearly observe the rats' behavior from a predetermined location. The experimenter numbered the arms of the maze according to their orientation from one to eight in a clock-wise direction. On day one the doors were inserted into the arms and each rat was confined in the central platform with 20 food pellets for 5 minutes. […] The following day the rats were allowed five minutes to explore the whole maze. All arms were baited with two food pellets in the food cup located at the end of each arm, and one pellet at both the entrance and middle of each arm. This was repeated for at least five, but up to eight days for rats that explored fewer than eight arms in two consecutive sessions. […] At this point it was decided that one of the old rats that had made only one arm entry on eight of the nine days should be excluded from future testing in this procedure. Otherwise all rats were included regardless of the amount of exploring they performed in pre-training. […] 30 days before the test (five days after pre-training) the 17 Male Wistar month old rats were implanted (under halothane anesthesia) with sub-cutaneous mini-osmotic pumps (Alzet) to dispense drug continuously for 3 weeks. At the completion of the infusion the pumps were removed and the wounds re-sutured (9-day washout allowed). The treatment groups were: • 1. young controls (4 months old), n=6; • 2. saline n=10; • 3. G-2-MePE low dose (2.4 mg/kg/day) n=13 • 4. G-2-MePE high dose (12.4 mg/kg/day) n=5 Working memory testing commenced on the ninth day of washout. Rats received 10 daily training sessions over 12 days. […] The experimenter recorded the sequence of arm entries with pen and paper. […] The time taken to enter all eight arms, when this occurred, was recorded. […]

GFAP-positive astrocytes = test: Astrocytosis, GFAP staining in aged brains; type: in vivo, rat; settings: 18-month old rats; i.p.; 3 d; particularly 0.12 and 12 mg/kg; p<0.05
Experimental: To carry out these studies, tissues were fixed and embedded in paraffin and sections obtained using standard methods. Coronal sections (6 μm) containing the level of the hippocampus were cut and mounted on chrome-alum-coated slides for staining. The sections were deparaffinized in xylene, […] in a series of ethanol and incubated in 0.1 M phosphate buffered saline (PBS). Primary antibodies against glial fibrillary acidic protein (GFAP) and proliferating cell nuclear antigen (PCNA) were used to mark reactive glial cells and cells undergoing apoptosis and proliferation, respectively. For antigen unmasking (caspase-3 and PCNA staining), sections were heated in 10 mM sodium citrate buffer (pH 6.0) for 1 min at high power. All sections were pretreated with 1% H2O2 in 50% methanol for 30 min to quench the endogenous peroxidase activity. […] The number of PCNA positive cells was counted in the subventricular zone and the GFAP positive cells was scored in the cerebral cortex. We also evaluated effects of G-2-MePE on astrocytosis in the CA4 sub-region of the hippocampus in aged rats. […] GFAP-positive cells were counted using a computerised program (Discovery 1). G-2-MePE was administered intra-peritoneally and the numbers of GFAP-positive cells were assessed 3d after the injection. […]

MeCP2 deficient mice = test: Seizure activity, electroencephalographic recordings (Example 12); settings: mouse, in vivo
Source text: Electroencephalograpic recordings of wild-type mice and MeCP2 deficient mice treated with either saline or G-2-MePE are obtained using methods described in U.S. Pat. No. 7,714,020.

[1] = test system: fmr1 KO hippocampal neurons; test: Dendritic spine density in hippocampal primary cell cultures (microfluidic chamber, GFP); type: cell-based, mouse; settings: 0.5 nM, n=3 independent experiments
Experimental: Hippocampal cell cultures were prepared from wild-type and fmr1 KO foetal mice (14-16 d of gestation). After 3d in vitro, green fluorescent protein (GFP) was used to monitor dendritic spine density during time-course of culture (Ethell and Yamaguchi, 1999; Ethell et al., 2001, Henkemeyer et al., 2003). Dendritic spines are usually formed between 7 and 14 days in vitro (DIV). By 14 DIV most dendritic protrusions are spines. We evaluated the effect of G-2-MePE, a positive control (the mGluR5 antagonist 2-methyl-6-(phenylethynyl)-pyridine or MPEP) and vehicle controls on dendritic spine density in fmr1 KO and WT hippocampal primary cell cultures. Fmr1 KO and wild-type cultures were treated at 17 DIV.
We used the compartmentalized culture system, a microfluidic chamber (see FIG. 31A) which opens the possibility for fast drug testing with the capacity to detect in vitro drug effects such as spine morphology, neurite outgrowth and synapse formation. The treated and untreated neurons in the compartmentalized chambers can be also being use for western blot analysis. The compartmentalised culture is a new approach to evaluate the effect of drugs on anterograde and retrograde transport of messengers and proteins relevant to FXS. Other new possibility that offers this approach its access into exclusive axon compartment, in this area immunodetection and treatments are also possible. […]

C[C@@]1(C(=O)N[C@@H](CCC(=O)O)C(=O)O)CCCN1C(=O)CN [Example G-2-MePE, Glycyl-L-2-methylprolyl-L-glutamic acid] (HELM PEPTIDE1{G.[C[C@@]1(C(=O)[*:2])CCCN1[*:1]].E}$$$$V2.0)
WCC8-12 score, improvement across days (17 month old rats; high dose 12.4 mg/kg/day s.c. pump 3 weeks): showed the greatest improvement across days
correct maze choices averaged across days (17 month old rats; higher dose vs vehicle, p<0.05): more correct entries
WCC8-12 score, improvement across days (17 month old rats; low dose 2.4 mg/kg/day s.c. pump 3 weeks): very little difference
number of reactive astrocytes (GFAP) in CA4 region of hippocampus (GFAP-positive astrocytes): reduced number of reactive astrocytes
motor seizures and non-convulsive seizures (MeCP2 deficient mice): effective in decreasing both motor seizures and non-convulsive seizures
dendritic spine density (mean±SD) [1]: 0.33±0.07 spines per micrometer
